We go through two compounds from US11466010B2, “Toll-like receptor 8 (TLR8) specific antagonists and methods of making and uses thereof” (The Regents of the University of Colorado, a body corporate, priority 2017, dated 2022).

One assay addresses T1, TLR7 (Homo sapiens, UniProt Q9NYK1).
T1 construct: host or cells: HEK-Blue TLR7 cells
T1 sequence (Q9NYK1 27-1049): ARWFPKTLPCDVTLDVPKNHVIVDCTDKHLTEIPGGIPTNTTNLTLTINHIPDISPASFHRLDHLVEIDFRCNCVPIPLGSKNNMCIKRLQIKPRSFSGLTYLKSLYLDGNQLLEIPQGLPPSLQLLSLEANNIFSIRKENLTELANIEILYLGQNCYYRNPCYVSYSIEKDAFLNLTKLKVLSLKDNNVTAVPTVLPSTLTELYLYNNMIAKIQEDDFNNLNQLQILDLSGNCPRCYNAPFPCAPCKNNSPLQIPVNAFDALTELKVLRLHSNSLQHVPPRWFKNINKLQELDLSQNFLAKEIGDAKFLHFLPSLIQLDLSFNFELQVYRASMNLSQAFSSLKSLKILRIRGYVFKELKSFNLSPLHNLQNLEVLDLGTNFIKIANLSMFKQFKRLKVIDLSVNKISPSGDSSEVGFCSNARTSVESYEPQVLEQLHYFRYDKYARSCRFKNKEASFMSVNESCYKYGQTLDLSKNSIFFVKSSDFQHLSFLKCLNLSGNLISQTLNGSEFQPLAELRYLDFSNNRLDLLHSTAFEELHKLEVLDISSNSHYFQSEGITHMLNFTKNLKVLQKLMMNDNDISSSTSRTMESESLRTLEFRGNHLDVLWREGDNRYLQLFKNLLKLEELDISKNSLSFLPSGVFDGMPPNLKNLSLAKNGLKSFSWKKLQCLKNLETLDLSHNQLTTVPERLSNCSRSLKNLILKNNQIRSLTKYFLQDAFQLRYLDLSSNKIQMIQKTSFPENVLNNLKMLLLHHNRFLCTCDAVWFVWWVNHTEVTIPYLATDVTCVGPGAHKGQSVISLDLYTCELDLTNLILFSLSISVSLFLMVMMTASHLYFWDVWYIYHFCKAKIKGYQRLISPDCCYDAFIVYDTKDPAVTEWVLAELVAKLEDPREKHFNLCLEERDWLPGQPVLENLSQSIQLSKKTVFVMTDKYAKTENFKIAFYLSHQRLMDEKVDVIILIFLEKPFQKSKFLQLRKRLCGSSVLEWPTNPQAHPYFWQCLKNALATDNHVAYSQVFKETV
Nature of the assay: SEAP assay in HEK-Blue TLR7 cells activated by R848. Type of assay: cell-based. The settings on record: below approx. micromolar concentration. The method, then:
TLR selectivity assay: The selectivity of sample compound was tested using SEAP reporter assay in HEK-Blue overexpressing various TLRs. Plates were set up in same manner as described in SEAP assay above.

For a further assay, the target named is T2, mouse TLR9 (Mus musculus, UniProt Q9EQU3).
T2 construct: endogenous in cells; host or cells: primary splenocytes from hTLR8tg/TLR7-KO mice
T2 sequence (Q9EQU3 26-1032): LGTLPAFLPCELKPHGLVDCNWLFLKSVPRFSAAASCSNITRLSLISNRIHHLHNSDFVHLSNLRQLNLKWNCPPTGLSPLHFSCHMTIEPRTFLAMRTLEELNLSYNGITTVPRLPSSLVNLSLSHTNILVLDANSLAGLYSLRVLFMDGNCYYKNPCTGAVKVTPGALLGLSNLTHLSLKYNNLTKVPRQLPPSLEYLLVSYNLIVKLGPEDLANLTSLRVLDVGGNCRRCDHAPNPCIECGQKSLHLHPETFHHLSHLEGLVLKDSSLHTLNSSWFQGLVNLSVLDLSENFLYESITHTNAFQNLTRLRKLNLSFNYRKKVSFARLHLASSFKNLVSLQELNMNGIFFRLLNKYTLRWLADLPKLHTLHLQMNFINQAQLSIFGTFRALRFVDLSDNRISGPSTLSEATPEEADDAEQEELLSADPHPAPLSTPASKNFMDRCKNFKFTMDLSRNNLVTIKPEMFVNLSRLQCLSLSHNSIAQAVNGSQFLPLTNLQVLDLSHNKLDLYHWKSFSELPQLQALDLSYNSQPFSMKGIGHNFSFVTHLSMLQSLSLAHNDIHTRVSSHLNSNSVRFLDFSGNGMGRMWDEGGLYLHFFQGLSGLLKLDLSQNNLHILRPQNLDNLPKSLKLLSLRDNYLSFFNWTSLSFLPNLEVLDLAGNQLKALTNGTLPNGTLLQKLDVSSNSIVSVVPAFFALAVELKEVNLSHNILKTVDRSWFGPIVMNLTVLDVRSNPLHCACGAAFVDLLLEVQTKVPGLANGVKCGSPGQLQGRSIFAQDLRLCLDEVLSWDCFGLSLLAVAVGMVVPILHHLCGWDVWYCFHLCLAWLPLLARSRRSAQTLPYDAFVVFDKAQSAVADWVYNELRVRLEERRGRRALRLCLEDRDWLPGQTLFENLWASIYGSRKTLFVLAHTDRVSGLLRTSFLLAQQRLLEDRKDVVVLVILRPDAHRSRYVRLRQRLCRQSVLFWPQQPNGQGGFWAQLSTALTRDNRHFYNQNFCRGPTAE
Put plainly: IL-12p40 production in splenocytes from hTLR8tg/TLR7-KO mice, TLR9 agonist 1018. Type of assay: cell-based. The settings on record: 1018 7.1 ug/mL, 48 hours. The method, then: Activity on primary mouse splenocytes: To assess TLR8 and TLR9 activity, spleens were isolated from TLR7 knock-out mice harboring a human TLR8 transgene (hTLR8tg/TLR7-KO). Splenocytes were prepared by dissociation through a cell strainer and removal of red blood cells with lysis buffer. Splenocytes were incubated with a dilution series of compounds and a constant amount of a TLR8 agonist (RNA oligonucleotide ORN8L) or a TLR9 agonist (CpG-containing phosphorothioate DNA oligonucleotide 1018). After 48 hours, culture supernatants were collected and analyzed for IL-12p40 production. Curves represent activity from a single spleen.

On to `COc1ccc2c(-c3ccc(O)c(C)c3)ccnc2c1` [Compound 11a, 2-Methyl-4-(7-methoxyl-4-quinolinyl)-phenol], for which the “effect on TLR7” value on TLR7 is given as “not affected”. The “activity against mouse TLR9” value on mouse TLR9 is listed as “no activity”.
For `Cc1cc(-c2ccnc3cc(O)ccc23)ccc1O` [Compound 11b, 2-Methyl-4-(7-hydroxyl-4-quinolinyl)-phenol] the same measures were “not affected” and “no activity”.
